Data published in US20110092453A1, “TREATMENTS AND PREVENTION OF HYDROCEPHALUS” (THE UNIVERSITY OF MANCHESTER, priority 2007, published 2011).

Legend:
[1] = system: germinal epithelium cells; conditions: in the presence of 10% HC CSF; n=3
[2] = human population, supplementation of female diets; data from reports; cited from earlier work
H-Tx model of EOHC = assay: In vivo supplementation of mothers, numbers of affected HC fetuses; parameters: species or system rat; conditions: long term: 2.5 mg/kg daily from 14 days prior to mating to day 20; saline controls 45%
Protocol: (§1) Mothers were injected daily with 2.5 mg/kg of the supplements folic acid or folinic acid or saline controls. Injections were started 14 days prior to mating and continued throughout pregnancy up to harvesting of the fetuses at day 20. Fetuses were harvested on Day20 of gestation and each fetus was scored as affected HC or normal. The percentage of normal or affected fetuses in each litter was then calculated and results were averaged across the 3 mothers (2 for saline treatment) and are plotted as shown, mean±SD.
as §1, with “acid.” for “acid or saline controls.”, “at E17 of the pregnancy” for “14 days prior to mating”, “through the rest of the” for “throughout”
Timed pregnancies of H-Tx or Wistar rats were harvested from pregnant dams killed by intraperitoneal injection of sodium pentobarbitone. […]
Female rats were handled for one week prior to the start of the supplementation protocol to decrease handling stress. […] Stained sections were photographed on a Lecia DMLB photomicroscope and analysed using Metaview software. […]

[3] = Effect of supplementation on mother's weight through pregnancy; type: in vivo, rat; conditions: 2.5 mg/kg daily injection from 14 days prior to mating to day 20; no significant differences
Protocol: Mothers were injected daily with 2.5 mg/kg of the supplements folic acid or folinic acid or saline controls. Injections were started 14 days prior to mating and continued throughout pregnancy up to harvesting of the fetuses at day 20. Mothers were weighed at the same time each day and data converted to % of starting weight at day 0. Results were averaged across the 3 mothers (2 for saline treatment) and are plotted as shown mean±SD.
The hypothesis was tested further using the H-Tx model of EOHC. Mothers were injected daily with 2.5 mg/kg of the supplements folic acid (3 mothers-31 pups) or folinic acid (3 mothers-35 pups) or saline controls (2 mothers-20 pups). Injections were started 14 days prior to mating and continued throughout pregnancy up to harvesting of the fetuses at day 20.

weight of the mothers compared to saline treated animals [3]	SMILES	uptake, % of that in the absence of added CSF [1]	effect on the incidence of HC [2]	incidence of HC (percentage of affected fetuses in the litter) (H-Tx model of EOHC)
	Nc1nc2ncc(CNc3ccc(C(=O)N[C@@H](CCC(=O)O)C(=O)O)cc3)nc2c(=O)[nH]1 [[^3H]-folic acid]	53±13%		
slightly increased weight	Nc1nc2ncc(CNc3ccc(C(=O)N[C@@H](CCC(=O)O)C(=O)O)cc3)nc2c(=O)[nH]1 [folic acid]		does not have any significant effect	60%
